We go through 6 compounds from PMC8072719, “Synthesis and Antiproliferative Activity of Triazoles Based on 2-Azabicycloalkanes” (Materials, 2021).

The structures appear in SMILES notation. Where two headings read alike, the source gives them in different places. Bounds are passed on as bounds.

For one experiment, the system named is Hs294T. Briefly: Growth inhibition assay (SRB assay), melanoma cell line Hs294T. In kind it is cell-based, human. The note with it: Homo sapiens, Hs 294T, 72 h, mean ± SD. On the procedure: (§1) Three human cancer cell lines were used to evaluate the antiproliferative activity of the obtained compounds: melanoma cell line Hs294T, pancreatic tumor cell line MIA PaCa-2, and lung tumor cell line NCI-H1581. The normal mouse fibroblasts cell line (BALB/3T3 clone A31) was selected as reference. All these lines were purchased from the ATCC (American Type Culture Collection, Rockville, MD, USA). NCI-H1581 cells were grown in RPMI 1640 with GlutaMax medium (Gibco, Thermo Fisher Scientific, Leicestershire, UK) with 5% fetal bovine serum (FBS; HyClone, GE Healthcare, Logan, UT, USA). Hs294T and BALB/3T3 cells were grown in Dulbecco’s Modified Eagle Medium (DMEM; Gibco, Thermo Fisher Scientific, Leicestershire, UK) supplemented with 2 mM L-glutamine and 10% FBS (HyClone, GE Healthcare, Logan, UT, USA). MIA PaCa-2 cells were grown in DMEM (Gibco, Thermo Fisher Scientific, Leicestershire, UK) supplemented with 2 mM L-glutamine, 2.5% Horse Serum (Gibco, Thermo Fisher Scientific, Leicestershire, UK), and 10% FBS (HyClone, GE Healthcare, Logan, UT, USA). All culture media were supplemented with antibiotics: 100 U/mL penicillin (Polfa Tarchomin SA, Warsaw, Poland) and 100 µg/mL streptomycin (Sigma-Aldrich Chemie GmbH, Steinheim, Germany); cells were grown at 37 °C in a humid atmosphere with 5% CO2.
(§2) Twenty-four hours prior to the addition of the tested compounds, 2000 cells per well of Balb/3T3, MIA PaCa-2, and Hs294T cell lines and 2500 cells of NCI-H1581 cell line were seeded in 384-well plates (Greiner Bio-One, Kremsmünster, Austria) in an appropriate medium. The studied compounds were added to the cells at 8 different concentrations in a series of dilutions from 100 to 0.00001 µg/mL for 72 h. Cisplatin was applied as a reference compound (Teva Pharmaceuticals, Warsaw, Poland). DMSO (Sigma-Aldrich Chemie GmbH, Steinheim, Germany) was used as solvent control. The DMSO concentrations corresponded to the solvent concentrations in the tested compound solutions. Then, 30 µL per well of ice-cold 50% TCA (trichloroacetic acid, Avantor, Gliwice, Poland) was added to the cells. After one hour of incubation at room temperature (RT) cells were washed five times with water and stained with 0.4% SRB (sulforhodamine B, Sigma-Aldrich Chemie GmbH, Steinheim, Germany). Twenty-five microliters per well of 0.4% solution of SRB in 1% acetic acid (Avantor, Gliwice, Poland) was applied. After 0.5 h of incubation at RT, the unbound dye was washed out with 1% acetic acid. The bound dye in each well was dissolved in 70 µl of 10 mM TRIS (Tris base, Sigma-Aldrich, Chemie GmbH, Steinheim, Germany). A microplate reader (BioTek Synergy H4, Swindon, UK) with Gen5 software was used to read the absorbance at 540 nm. The results are presented as mean IC50 values (concentration of the compound that inhibits cell proliferation by 50%) ± standard deviation. Half-maximal inhibitory concentration (IC50) values were calculated using the Prolab-3 system based on Cheburator 0.4 [22]. Each experiment was performed in triplicate, and three independent repetitions were made for each experiment. Raw data and IC50 values were placed in the supplementary materials.

The next experiment concerns BALB/3T3 clone A31. Briefly: Growth inhibition assay (SRB assay), normal fibroblasts BALB/3T3 clone A31. In kind it is cell-based, mouse. The note with it: Mus musculus, BALB/3T3 clone A31, 72 h, mean ± SD. The method, then:
as §1, §2

Another experiment has as its system NCI-H1581. The experiment can be described thus: Growth inhibition assay (SRB assay), lung tumor cell line NCI-H1581. As to conditions: for IC50: 72 h, SRB, mean ± SD; for SI (Selectivity Index): SI = IC50 for normal cell line BALB/3T3 / IC50 for NCI-H1581. In kind it is cell-based, human. The method, then: as §1, §2
(In general: Sulforhodamine B stains cellular protein and so reports cell mass.)

The next experiment has as its system MIA PaCa-2. The experiment can be described thus: Growth inhibition assay (SRB assay), pancreatic tumor cell line MIA PaCa-2. In kind it is cell-based, human. As to conditions: Homo sapiens, mean ± SD. On the procedure: as §1, §2
[1] abbreviates: supplement, read-out: IC50 Hs294T (raw data).
Setting [2] is: normal cell line, read-out: IC50 BALB3T3.
[3] abbreviates: supplement, read-out: IC50 BALB3T3 (raw data).
Setting [4] is: Homo sapiens, NCI-H1581, 72 h, read-out: IC50 NCI-H1581.
[5] abbreviates: Homo sapiens, NCI-H1581, 72 h, supplement, read-out: IC50 NCI-H1581 (raw data).
[6] abbreviates: MIA PaCa-2, 72 h, read-out: IC50 MIA PaCa-2.
The mark [7] stands for this setting: MIA PaCa-2, supplement, 72 h, read-out: IC50 MIA PaCa-2 (raw data).

In the case of `C[C@@H](c1ccccc1)N1C[C@@H](n2cc(CO)nn2)[C@@H]2CC[C@H]1C2` [Compound 1, (1-((1S,4S,5R)-2-((S)-1-phenylethyl)-2-azabicyclo[3.2.1]octan-4-yl)-1H-1,2,3-triazol-4-yl)methanol], the IC50 (in general, the point on the concentration scale where inhibition reaches its midpoint) with Hs294T (read-out: IC50 Hs294T) was more than 100 µM; in the experiment with Hs294T (supplement, read-out: IC50 Hs294T (non-rounded data)) it was more than 100 µM; in the experiment with Hs294T (setting [1]), more than 100 µM; in the experiment on BALB/3T3 clone A31 (setting [2]), more than 100 µM; in the experiment on BALB/3T3 clone A31 (supplement, read-out: IC50 BALB3T3 (non-rounded data)) it was more than 100 µM; in the experiment on BALB/3T3 clone A31 (setting [3]), more than 100 µM. The IC50 with NCI-H1581 (setting [4]) is more than 100 µM; in the experiment with NCI-H1581 (Homo sapiens, NCI-H1581, 72 h, supplement, read-out: IC50 NCI-H1581 (non-rounded data)), more than 100 µM; in the experiment on NCI-H1581 (setting [5]), more than 100 µM; with MIA PaCa-2 (setting [6]), more than 100 µM; in the experiment on MIA PaCa-2 (MIA PaCa-2, supplement, 72 h, read-out: IC50 MIA PaCa-2 (non-rounded data)), more than 100 µM; with MIA PaCa-2 (setting [7]), more than 100 µM.

In the case of `C=CC(=O)OCc1cn([C@@H]2CN([C@@H](C)c3ccccc3)[C@H]3CC[C@@H]2C3)nn1` [Compound 4, (1-((1S,4S,5R)-2-((S)-1-phenylethyl)-2-azabicyclo[3.2.1]octan-4-yl)-1H-1,2,3-triazol-4-yl)methyl acrylate], the IC50 with Hs294T (read-out: IC50 Hs294T) was 9.52 ± 2.51 µM; in the experiment with Hs294T (setting [1]), 3.49 ± 0.92 µg/mL; in the experiment on BALB/3T3 clone A31 (setting [2]) it was 1.75 ± 0.76 µM; with BALB/3T3 clone A31 (setting [3]), 0.64 ± 0.28 µg/mL; in the experiment on NCI-H1581 (setting [4]), 7.91 ± 1.2 µM; with NCI-H1581 (setting [5]), 2.9 ± 0.44 µg/mL. Moreover, the IC50 in the experiment on MIA PaCa-2 (setting [6]) is 87.7 ± 1.66 µM; in the experiment on MIA PaCa-2 (setting [7]), 32.1 ± 0.61 µg/mL. Also, the “SI (Selectivity Index)” value in the experiment on NCI-H1581 came out at 0.2.

Regarding `C[C@@H](c1ccccc1)N1C[C@H](n2cc(-c3cccc(N)c3)nn2)[C@@H]2CC[C@H]1C2` [Compound 7, 3-(1-((1S,4R,5R)-2-((S)-1-phenylethyl)-2-azabicyclo[3.2.1]octan-4-yl)-1H-1,2,3-triazol-4-yl)aniline], the IC50 in the experiment with Hs294T (read-out: IC50 Hs294T) stood at 65.9 ± 8.3 µM; with Hs294T (setting [1]) it was 24.6 ± 3.1 µg/mL; with BALB/3T3 clone A31 (setting [2]), 52.7 ± 6.16 µM; in the experiment on BALB/3T3 clone A31 (setting [3]), 19.7 ± 2.3 µg/mL; with NCI-H1581 (setting [4]), 7.39 ± 1.15 µM; in the experiment on NCI-H1581 (setting [5]), 2.76 ± 0.43 µg/mL. Besides, the values for the IC50 with MIA PaCa-2 (setting [6]) and in the experiment with MIA PaCa-2 (setting [7]) were 77 ± 1.98 µM and 28.7 ± 0.74 µg/mL, respectively. The “SI (Selectivity Index)” value with NCI-H1581 turned out to be 7.

In the case of `CC(c1ccccc1)N1CC(n2cc(C3C4CCC(C4)N3C(C)c3ccccc3)nn2)C2CCC1C2` (stereo not drawn) [Compound 20], the IC50 with Hs294T (read-out: IC50 Hs294T) was found to be 57 ± 13.6 µM; in the experiment with Hs294T (setting [1]), 27.5 ± 6.57 µg/mL; with BALB/3T3 clone A31 (setting [2]), 39.4 ± 4.86 µM; with BALB/3T3 clone A31 (setting [3]), 19 ± 2.34 µg/mL; with NCI-H1581 (read-out: IC50 NCI-H1581), 6.25 ± 1.37 µM; in the experiment with NCI-H1581 (setting [4]) it was 6.3 µM. In addition, the IC50 with NCI-H1581 (setting [5]) was found to be 3.01 ± 0.66 µg/mL; in the experiment with MIA PaCa-2 (setting [6]), 63 ± 7.29 µM; in the experiment on MIA PaCa-2 (setting [7]) it was 30.4 ± 3.51 µg/mL. Further, the “SI (Selectivity Index)” value in the experiment with NCI-H1581 was determined as 6.

Regarding `C[C@@H](c1ccccc1)N1C[C@H](n2cc(COCc3ccccc3)nn2)[C@@H]2CC[C@H]1C2` [Compound 9, (1S,4R,5R)-4-(4-((benzyloxy)methyl)-1H-1,2,3-triazol-1-yl)-2-((S)-1-phenylethyl)-2-azabicyclo[3.2.1]octane], the IC50 in the experiment with Hs294T (read-out: IC50 Hs294T) is 70.9 ± 5.86 µM; in the experiment with Hs294T (setting [1]), 28.5 ± 2.36 µg/mL; with BALB/3T3 clone A31 (setting [2]), 50 ± 3.25 µM; in the experiment with BALB/3T3 clone A31 (setting [3]) it was 20.1 ± 1.31 µg/mL; in the experiment with NCI-H1581 (setting [4]), 8.52 ± 1.39 µM; with NCI-H1581 (setting [5]), 3.43 ± 0.56 µg/mL. The results for the IC50 in the experiment on MIA PaCa-2 (setting [6]) and with MIA PaCa-2 (setting [7]) were 76.5 ± 4.37 µM and 30.8 ± 1.76 µg/mL, respectively. In addition, in the experiment on NCI-H1581, the “SI (Selectivity Index)” value stood at 6.

On to `C[C@@H](c1ccccc1)N1C[C@H](n2cc(CO)nn2)[C@@H]2CC[C@H]1C2` [Compound 2, (1-((1S,4R,5R)-2-((S)-1-phenylethyl)-2-azabicyclo[3.2.1]octan-4-yl)-1H-1,2,3-triazol-4-yl)methanol], for which the IC50 in the experiment on Hs294T (read-out: IC50 Hs294T) is more than 100 µM; in the experiment on Hs294T (setting [1]) it was 46.1 ± 2.17 µg/mL; with BALB/3T3 clone A31 (setting [2]) it was more than 100 µM; with BALB/3T3 clone A31 (setting [3]) it was 56.1 ± 8.24 µg/mL; with NCI-H1581 (setting [4]), 72.3 ± 34 µM; with NCI-H1581 (setting [5]), 22.6 ± 10.6 µg/mL. The IC50 is more than 100 µM with MIA PaCa-2 (setting [6]) and 71.4 ± 11.8 µg/mL in the experiment with MIA PaCa-2 (setting [7]).
